Assay results taken from the supplement of paper PMC10307832.

Tests used:
Experiment in all cases: relative viability (nuclei count vs DMSO), 5 days (fraction); higher = more cells survive
[1] = compound: C1CC1C(=O)NC2=NNC3=C2C=CC(=C3)C4=CC(=CC=C4)C(=O)NC5CC5 [XMD13-2] + COc1cc2c(Oc3ccc(NC(=O)C4(C(=O)Nc5ccc(F)cc5)CC4)cc3F)ccnc2cc1OCCCN1CCOCC1 [Foretinib] (partner 0.25 µM)
Summary of the method: (§1)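 Nuclei were stained with Hoechst during a one-step fixation (final 0.05% Triton X-100, 1% formaldehyde, 1 ug/ml Hoechst) carried out 5 days after dosing, then counted on 4× images. The cells, lung cancer lines in 1536-well plates, had been dosed by pin tool the day after seeding with one drug alone or a fixed anchor-drug dose plus five library-drug doses (not always all listed) in √10 steps. Relative viability is the nuclei count in treated wells divided by that in vehicle wells, and each value is the median of duplicate plates.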

[2] = compound: Cc1ccc(C(=O)Nc2cccc(C(F)(F)F)c2)cc1Nc1cncc(C(N)=O)c1 [ALW-II-49-7] + COc1cccc2cc(-c3nc([C@H]4CC[C@H](C(=O)O)CC4)n4ncnc(N)c34)[nH]c12 [OSI-027] (partner 0.5 µM)
Summary of the method: as §1

[3] = compound: C1CC1C(=O)NC2=NNC3=C2C=CC(=C3)C4=CC(=CC=C4)C(=O)NC5CC5 [XMD13-2] + Nc1ncn([C@H]2C[C@H](O)[C@@H](CO)O2)c(=O)n1 [Decitabine] (partner 2 µM)
Summary of the method: as §1

[4] = compound: Cc1nc(Nc2ncc(C(=O)Nc3c(C)cccc3Cl)s2)cc(N2CCN(CCO)CC2)n1 [Dasatinib] + CS(=O)(=O)CCNCc1ccc(-c2ccc3ncnc(Nc4ccc(OCc5cccc(F)c5)c(Cl)c4)c3c2)o1 [Lapatinib] (partner 2 µM)
Summary of the method: as §1

Row | Cell Line | relative viability ([1]; first compound 0.05 µM) | relative viability ([1]; first compound 0.1581 µM) | relative viability ([1]; first compound 0.5 µM) | relative viability ([1]; first compound 1.581 µM) | relative viability ([1]; first compound 5 µM) | relative viability ([2]; first compound 0.08 µM) | relative viability ([2]; first compound 0.253 µM) | relative viability ([2]; first compound 0.8 µM) | relative viability ([2]; first compound 2.53 µM) | relative viability ([2]; first compound 8 µM) | relative viability ([3]; first compound 0.05 µM) | relative viability ([3]; first compound 0.1581 µM) | relative viability ([3]; first compound 0.5 µM) | relative viability ([3]; first compound 1.581 µM) | relative viability ([3]; first compound 5 µM) | relative viability ([4]; first compound 0.005 µM) | relative viability ([4]; first compound 0.01581 µM) | relative viability ([4]; first compound 0.05 µM) | relative viability ([4]; first compound 0.1581 µM) | relative viability ([4]; first compound 0.5 µM)
1 | NCI-H1623 | 0.898 | 0.864 | 0.892 | 0.824 | 0.947 | 0.416 | 0.408 | 0.371 | 0.351 | 0.357 | – | – | – | – | – | – | – | – | – | –
2 | HCC-827 | 1.11 | 1.04 | 0.951 | 1.05 | 0.704 | 0.737 | 0.696 | 0.714 | 0.621 | 0.64 | 0.317 | 0.365 | 0.281 | 0.719 | 0.343 | 0.173 | 0.18 | 0.139 | 0.16 | 0.131
3 | NCI-H322M | 1.06 | 1.02 | 0.909 | 0.971 | 1.09 | 0.54 | 0.469 | 0.444 | 0.447 | 0.406 | 0.73 | 0.718 | 0.791 | – | 0.742 | 0.582 | 0.345 | 0.373 | 0.246 | 0.189
4 | ChaGo-K-1 | 0.883 | 0.885 | 0.944 | 0.882 | 0.932 | 0.472 | 0.622 | 0.616 | 0.496 | 0.429 | 0.521 | 0.53 | 0.528 | 0.511 | 0.496 | – | – | – | – | –
5 | BEN | 0.802 | 0.829 | 0.654 | 0.53 | 0.737 | 0.548 | 0.317 | 0.294 | 0.288 | 0.403 | 0.803 | 0.705 | 0.719 | 0.648 | 0.705 | 0.617 | 0.362 | 0.432 | 0.312 | 0.336
6 | NCI-H2347 | 0.986 | 0.992 | 1.17 | 0.848 | 1.1 | 0.386 | 0.396 | 0.443 | 0.36 | 0.276 | 0.599 | 0.565 | 0.652 | 0.566 | 0.65 | 0.872 | 0.951 | 1.04 | 0.691 | 0.386
7 | LOU-NH91 | 1.01 | 0.979 | 1 | 0.943 | 1.04 | 0.666 | 0.733 | 0.684 | 0.729 | 0.676 | 0.815 | 0.844 | 0.802 | 0.837 | 0.882 | 0.673 | 0.592 | 0.571 | 0.503 | 0.414
8 | NCI-H2228 | 0.912 | 1.13 | 0.839 | 0.875 | 1.02 | 0.502 | 0.269 | 0.496 | 0.59 | 0.471 | – | – | – | – | – | 0.829 | 1.06 | 0.705 | 0.731 | 0.551
9 | NCI-H2342 | 0.973 | 1.04 | 1.11 | 0.984 | 1.01 | 0.532 | 0.535 | 0.602 | 0.592 | 0.562 | 0.724 | 0.841 | 0.778 | 0.716 | 0.807 | – | – | – | – | –
10 | HCC-366 | 1.02 | 0.915 | 0.952 | 0.905 | 0.896 | 0.977 | 1.17 | 0.731 | 0.985 | 0.627 | 0.332 | 0.34 | 0.33 | 0.341 | 0.378 | 0.99 | 0.713 | 0.695 | 0.446 | 0.337
11 | NCI-H2405 | 1.09 | 1 | 1.09 | 1.06 | 1.04 | 0.634 | 0.643 | 0.583 | 0.558 | 0.609 | 0.796 | 0.731 | 0.73 | – | 0.673 | 0.684 | 0.81 | 0.465 | 0.222 | 0.17
12 | Calu-6 | 0.954 | 0.906 | 0.89 | 0.909 | 0.772 | – | – | – | – | – | – | – | – | – | – | 0.924 | 0.776 | 0.848 | 0.642 | 0.59
13 | 201T | 1.28 | 1.09 | 1.12 | 1.15 | 1.16 | 0.68 | 0.841 | 0.462 | 0.493 | 0.684 | 0.861 | 0.839 | 0.905 | 0.86 | 0.902 | 0.931 | 0.81 | 0.924 | 0.875 | 0.486
14 | CAL-12T | 1.22 | 1.07 | 1.09 | 1.11 | 1.01 | 0.734 | 0.745 | 0.612 | 0.759 | 0.503 | – | – | – | – | – | 0.624 | 0.551 | 0.597 | 0.252 | 0.172
15 | HCC-44 | – | – | – | – | – | – | 0.743 | 0.325 | 0.533 | 0.414 | 0.981 | 0.835 | 1.01 | 0.992 | 0.963 | 1.03 | 0.942 | 1.07 | 0.844 | 0.555
16 | NCI-H358 | 0.805 | 0.767 | 0.904 | 0.685 | 0.335 | 0.722 | 0.788 | 0.628 | 0.756 | 0.611 | 0.248 | 0.212 | 0.22 | 0.216 | 0.18 | 0.484 | 0.377 | 0.295 | 0.251 | 0.291
17 | SW 900 | 1.1 | 0.963 | 0.922 | 0.963 | 0.677 | 0.426 | 0.642 | 0.555 | 0.445 | 0.347 | 0.51 | 0.454 | 0.447 | 0.439 | 0.447 | – | – | – | – | –
18 | NCI-H2087 | 1.4 | 1.27 | 1.22 | 1.08 | 0.727 | 0.578 | 0.537 | 0.525 | 0.547 | 0.51 | 0.322 | 0.291 | 0.344 | 0.26 | 0.279 | 1.03 | 0.839 | 0.95 | 1.09 | 0.605
